The text below walks through data of US12649746B2, “Ketorolaco derivative, pharmaceutical composition and preparation method therefor and use thereof” (NANJING HERON PHARMACEUTICAL SCIENCE AND TECHNOLOGY CO., …, priority 2020, dated 2026).

The half-life is the time needed for the level to fall by half in the phase considered.

Entries after “also recorded” stand apart in the source; their conditions may differ.

One data set can be described thus: in vitro. The note with it: human, plasma.
Take `CC(C)OC(=O)C1CCn2c(C(=O)c3ccccc3)ccc21` (centres unmarked) [N11, reference compound]: the half-life at 97.6 µM is 5.78 h.

Consider `CCCCCCCCOC(=O)OC(C)OC(=O)C1CCn2c(C(=O)c3ccccc3)ccc21` (centres unmarked) [N26], for which the half-life at 97.6 µM was determined as 2.95 h.

Regarding `CCOC(=O)OC(C)OC(=O)C1CCn2c(C(=O)c3ccccc3)ccc21` (centres unmarked) [N12], the half-life at 97.6 µM amounted to 0.246 h.

Consider `CCC(OC(=O)OC(C)C)OC(=O)C1CCn2c(C(=O)c3ccccc3)ccc21` (centres unmarked) [N16], for which the half-life at 97.6 µM amounted to 0.526 h.

Another data set in a line: By-product toxicity test (metabolic byproducts in the human body). The note with it: by the metabolic pathways of the compounds in the human body.
For the compound `CC(OC(=O)C1CCn2c(C(=O)c3ccccc3)ccc21)OC(=O)C(C)(C)C` (centres unmarked) [N7], the “Metabolic by-products in human body” value is “Acetaldehyde and pivalic acid”.

As for `CCOC(=O)OC(C)OC(=O)C1CCn2c(C(=O)c3ccccc3)ccc21` (centres unmarked) [N12], the “Metabolic by-products in human body” value is “Acetaldehyde and acetic acid”.

Still in this data set, the particulars now being: toxicity of the metabolic by-products in human body.
For the compound `CCCCCCCCOC(=O)OC(C)OC(=O)C1CCn2c(C(=O)c3ccccc3)ccc21` (centres unmarked) [N26], the Toxicity entry was “n-octanol is more toxic”.

Turning to `CC(OC(=O)C1CCn2c(C(=O)c3ccccc3)ccc21)OC(=O)C(C)(C)C` (centres unmarked) [N7], the Toxicity entry was “Pivalic acid is more toxic”.

On to `CCOC(=O)OC(C)OC(=O)C1CCn2c(C(=O)c3ccccc3)ccc21` (centres unmarked) [N12], for which the Toxicity result is “low toxicity of byproducts; also recorded: relatively low”.

Assay in a further data set: not given
To be noted: elderly patients; cited from earlier work.
As to `O=C(c1ccccc1)c1ccc2n1CCC2C(=O)O` (racemic) [Ketorolac, (±)-5-benzoyl-2,3-dihydro-1H-pyrrolizine-1-carboxylic acid], the elimination half-life is 6 to 7 h.

The same data set, now with this note: in vivo; cited from earlier work.
As to `O=C(c1ccccc1)c1ccc2n1CCC2C(=O)O` (racemic) [Ketorolac, (±)-5-benzoyl-2,3-dihydro-1H-pyrrolizine-1-carboxylic acid], the “binding rate to plasma protein” value was “more than 99%”; the distribution volume is 0.1 to 0.3 L/kg; the elimination half-life is 4 to 6 h; the “original drug and metabolites excreted with the urine” value was “about 90%”. The total clearance rate was 0.5 mL/min/kg.

The data set is the same for the next values; noted with them: oral administration and intramuscular injection; cited from earlier work.
Turning to `O=C(c1ccccc1)c1ccc2n1CCC2C(=O)O` (racemic) [Ketorolac, (±)-5-benzoyl-2,3-dihydro-1H-pyrrolizine-1-carboxylic acid], the effective treatment plasma concentration was 0.3 to 5 µg/mL and the “peak concentration time of the plasma concentration” value is 20 to 60 min.

The data set is the same for the next values; noted with them: renal insufficiency patients; cited from earlier work.
In the case of `O=C(c1ccccc1)c1ccc2n1CCC2C(=O)O` (racemic) [Ketorolac, (±)-5-benzoyl-2,3-dihydro-1H-pyrrolizine-1-carboxylic acid], the elimination half-life was 9 to 10 h.

Assay in another data set: not given
The note with it: times that of aspirin; cited from earlier work.
For `O=C(c1ccccc1)c1ccc2n1CCC2C(=O)O` (racemic) [Ketorolac, (±)-5-benzoyl-2,3-dihydro-1H-pyrrolizine-1-carboxylic acid], the “analgesic activity relative to aspirin” value is 800 times.

Staying with this data set, now noted: times that of indomethacin; cited from earlier work.
Consider `O=C(c1ccccc1)c1ccc2n1CCC2C(=O)O` (racemic) [Ketorolac, (±)-5-benzoyl-2,3-dihydro-1H-pyrrolizine-1-carboxylic acid], for which the “analgesic activity relative to indomethacin” value was 60 times.

Staying with this data set, now noted: times that of morphine; cited from earlier work.
On to `O=C(c1ccccc1)c1ccc2n1CCC2C(=O)O` (racemic) [Ketorolac, (±)-5-benzoyl-2,3-dihydro-1H-pyrrolizine-1-carboxylic acid], for which the “analgesic activity relative to morphine” value was 0.4 times.

The nature of the next data set: High temperature stability study of compounds (60° C.). The class given is physicochemical. The note with it: in the dark, Day 0. The procedure:
Test protocol: the compounds prepared in the present disclosure were placed in a colorless and transparent vial, placed in the dark at a high temperature (60° C.), and were sampled for day 0, day 5 and day 10, respectively, and the purity of the compounds and the change of the related substance (ketorolac) were determined.
For the compound `CC(OC(=O)C1CCn2c(C(=O)c3ccccc3)ccc21)OC(=O)C(C)(C)C` (centres unmarked) [N7], the “Total main peak purity (%)” value turned out to be 90.83%.

Turning to `CCOC(=O)OC(C)OC(=O)C1CCn2c(C(=O)c3ccccc3)ccc21` (centres unmarked) [N12], the “Total main peak purity (%)” value came out at 93.84%.

Take `CCC(OC(=O)OC(C)C)OC(=O)C1CCn2c(C(=O)c3ccccc3)ccc21` (centres unmarked) [N16]: the “Total main peak purity (%)” value was determined as 97.33%.

The same data set, now with this note: in the dark, Day 5.
Turning to `CC(OC(=O)C1CCn2c(C(=O)c3ccccc3)ccc21)OC(=O)C(C)(C)C` (centres unmarked) [N7], the “Total main peak purity (%)” value is 88.66%.

`CCOC(=O)OC(C)OC(=O)C1CCn2c(C(=O)c3ccccc3)ccc21` (centres unmarked) [N12]: the “Total main peak purity (%)” value is 93.59%.

As for `CCC(OC(=O)OC(C)C)OC(=O)C1CCn2c(C(=O)c3ccccc3)ccc21` (centres unmarked) [N16], the “Total main peak purity (%)” value worked out at 96.50%.

The same data set, now with this note: in the dark, Day 10.
For `CC(OC(=O)C1CCn2c(C(=O)c3ccccc3)ccc21)OC(=O)C(C)(C)C` (centres unmarked) [N7], the “Total main peak purity (%)” value turned out to be 88.59%.

On to `CCOC(=O)OC(C)OC(=O)C1CCn2c(C(=O)c3ccccc3)ccc21` (centres unmarked) [N12], for which the “Total main peak purity (%)” value was 93.36%.

`CCC(OC(=O)OC(C)C)OC(=O)C1CCn2c(C(=O)c3ccccc3)ccc21` (centres unmarked) [N16]: the “Total main peak purity (%)” value was 96.16%.

The data set is the same for the next values; noted with them: related substance, in the dark, Day 0.
On to `CC(OC(=O)C1CCn2c(C(=O)c3ccccc3)ccc21)OC(=O)C(C)(C)C` (centres unmarked) [N7], for which the “Ketorolac (%)” value is 0.18%.

Consider `CCOC(=O)OC(C)OC(=O)C1CCn2c(C(=O)c3ccccc3)ccc21` (centres unmarked) [N12], for which the “Ketorolac (%)” value was 0.03%.

Turning to `CCC(OC(=O)OC(C)C)OC(=O)C1CCn2c(C(=O)c3ccccc3)ccc21` (centres unmarked) [N16], the “Ketorolac (%)” value is 0.05%.

The data set is the same for the next values; noted with them: related substance, in the dark, Day 5.
As to `CC(OC(=O)C1CCn2c(C(=O)c3ccccc3)ccc21)OC(=O)C(C)(C)C` (centres unmarked) [N7], the “Ketorolac (%)” value was 0.25%.

As for `CCOC(=O)OC(C)OC(=O)C1CCn2c(C(=O)c3ccccc3)ccc21` (centres unmarked) [N12], the “Ketorolac (%)” value was found to be 0.07%.

With `CCC(OC(=O)OC(C)C)OC(=O)C1CCn2c(C(=O)c3ccccc3)ccc21` (centres unmarked) [N16], the “Ketorolac (%)” value is reported as 0.07%.

The data set is the same for the next values; noted with them: related substance, in the dark, Day 10.
Regarding `CC(OC(=O)C1CCn2c(C(=O)c3ccccc3)ccc21)OC(=O)C(C)(C)C` (centres unmarked) [N7], the “Ketorolac (%)” value came to 0.32%.

On to `CCOC(=O)OC(C)OC(=O)C1CCn2c(C(=O)c3ccccc3)ccc21` (centres unmarked) [N12], for which the “Ketorolac (%)” value is 0.07%.

As to `CCC(OC(=O)OC(C)C)OC(=O)C1CCn2c(C(=O)c3ccccc3)ccc21` (centres unmarked) [N16], the “Ketorolac (%)” value is listed as 0.07%.

Assay in another data set: not given
The note with it: human, 0 min, 97.6 µM.
In the case of `CC(C)OC(=O)C1CCn2c(C(=O)c3ccccc3)ccc21` (centres unmarked) [N11, reference compound], the “Content of ketorolac %” value turned out to be 0% and the “Content of the compound %” value is given as 99.700 ± 2.928%.

As to `CCOC(=O)OC(C)OC(=O)C1CCn2c(C(=O)c3ccccc3)ccc21` (centres unmarked) [N12], the “Content of ketorolac %” value worked out at 2.033 ± 0.342% and the “Content of the compound %” value is 97.967 ± 6.878%.

Regarding `CCC(OC(=O)OC(C)C)OC(=O)C1CCn2c(C(=O)c3ccccc3)ccc21` (centres unmarked) [N16], the “Content of ketorolac %” value is listed as 0% and the “Content of the compound %” value is given as 100 ± 4.001%.

The same data set, now with this note: human, 1 min, 97.6 µM.
For the compound `CCCCCCCCOC(=O)OC(C)OC(=O)C1CCn2c(C(=O)c3ccccc3)ccc21` (centres unmarked) [N26], the “Content of ketorolac %” value came to 0% and the “Content of the compound %” value was 100%.

The same data set, now with this note: human, 15 min, 97.6 µM.
Consider `CC(C)OC(=O)C1CCn2c(C(=O)c3ccccc3)ccc21` (centres unmarked) [N11, reference compound], for which the “Content of ketorolac %” value is 0% and the “Content of the compound %” value came to 99.813 ± 4.881%.

As to `CCCCCCCCOC(=O)OC(C)OC(=O)C1CCn2c(C(=O)c3ccccc3)ccc21` (centres unmarked) [N26], the “Content of ketorolac %” value is 0% and the “Content of the compound %” value worked out at 100%.

As for `CCOC(=O)OC(C)OC(=O)C1CCn2c(C(=O)c3ccccc3)ccc21` (centres unmarked) [N12], the “Content of ketorolac %” value is 34.203 ± 3.165% and the “Content of the compound %” value turned out to be 56.277 ± 3.890%.

Regarding `CCC(OC(=O)OC(C)C)OC(=O)C1CCn2c(C(=O)c3ccccc3)ccc21` (centres unmarked) [N16], the “Content of ketorolac %” value is on record as 9.847 ± 2.479% and the “Content of the compound %” value was 82.710 ± 1.909%.

Still in this data set, the particulars now being: human, 30 min, 97.6 µM.
Turning to `CC(C)OC(=O)C1CCn2c(C(=O)c3ccccc3)ccc21` (centres unmarked) [N11, reference compound], the “Content of ketorolac %” value is 0% and the “Content of the compound %” value was 89.807 ± 2.538%.

In the case of `CCCCCCCCOC(=O)OC(C)OC(=O)C1CCn2c(C(=O)c3ccccc3)ccc21` (centres unmarked) [N26], the “Content of ketorolac %” value is on record as 3.89 ± 0.61% and the “Content of the compound %” value is on record as 95.48 ± 1.56%.

Regarding `CCOC(=O)OC(C)OC(=O)C1CCn2c(C(=O)c3ccccc3)ccc21` (centres unmarked) [N12], the “Content of ketorolac %” value is listed as 53.297 ± 1.296% and the “Content of the compound %” value is reported as 25.590 ± 1.131%.

Regarding `CCC(OC(=O)OC(C)C)OC(=O)C1CCn2c(C(=O)c3ccccc3)ccc21` (centres unmarked) [N16], the “Content of ketorolac %” value amounted to 28.653 ± 0.277% and the “Content of the compound %” value is given as 65.987 ± 0.506%.

Still in this data set, the particulars now being: human, 60 min, 97.6 µM.
With `CC(C)OC(=O)C1CCn2c(C(=O)c3ccccc3)ccc21` (centres unmarked) [N11, reference compound], the “Content of ketorolac %” value is reported as 2.270 ± 0.328% and the “Content of the compound %” value came to 83.490 ± 9.087%.

With `CCCCCCCCOC(=O)OC(C)OC(=O)C1CCn2c(C(=O)c3ccccc3)ccc21` (centres unmarked) [N26], the “Content of ketorolac %” value amounted to 8.60 ± 0.33% and the “Content of the compound %” value stood at 89.20 ± 1.67%.

Regarding `CCOC(=O)OC(C)OC(=O)C1CCn2c(C(=O)c3ccccc3)ccc21` (centres unmarked) [N12], the “Content of ketorolac %” value was determined as 76.623 ± 10.483% and the “Content of the compound %” value is 5.997 ± 0.976%.

For `CCC(OC(=O)OC(C)C)OC(=O)C1CCn2c(C(=O)c3ccccc3)ccc21` (centres unmarked) [N16], the “Content of ketorolac %” value was 56.793 ± 2.096% and the “Content of the compound %” value turned out to be 35.437 ± 1.960%.

The data set is the same for the next values; noted with them: human, 120 min, 97.6 µM.
As for `CCCCCCCCOC(=O)OC(C)OC(=O)C1CCn2c(C(=O)c3ccccc3)ccc21` (centres unmarked) [N26], the “Content of ketorolac %” value is recorded as 24.34 ± 0.90% and the “Content of the compound %” value is recorded as 68.99 ± 1.45%.

Regarding `CCOC(=O)OC(C)OC(=O)C1CCn2c(C(=O)c3ccccc3)ccc21` (centres unmarked) [N12], the “Content of ketorolac %” value was determined as 87.973 ± 4.045% and the “Content of the compound %” value stood at 0%.

With `CCC(OC(=O)OC(C)C)OC(=O)C1CCn2c(C(=O)c3ccccc3)ccc21` (centres unmarked) [N16], the “Content of ketorolac %” value came out at 70.443 ± 4.274% and the “Content of the compound %” value is recorded as 7.047 ± 0.374%.
